pIC50, pKd: −log10 of the molar value. “And” between values parts separate entries of the source, which are not always exact repeats. Equal entries are not always repeated. Where two headings read alike, the source gives them in different places. Where a SMILES comes first, the peptide text is derived from it. The star is where a group is joined. βNA = c1ccc2cc(N*)ccc2c1
Columns and labels:
[1] = Caco-2 permeability assay; conditions: human, Caco-2, pH 7.4
galectin-3 [2] = target: T1, galectin-3 (Homo sapiens, UniProt P17931); experiment: GPN-induced galectin-3 accumulation (puncta) in JIMT-1 breast cancer cells; type: cell-based; parameters: In the intracellular assay, in contrast, only endogenous galectin was present; endogenous in cells; host or cells: JIMT-1 breast cancer cells
T1 sequence (P17931 whole entry): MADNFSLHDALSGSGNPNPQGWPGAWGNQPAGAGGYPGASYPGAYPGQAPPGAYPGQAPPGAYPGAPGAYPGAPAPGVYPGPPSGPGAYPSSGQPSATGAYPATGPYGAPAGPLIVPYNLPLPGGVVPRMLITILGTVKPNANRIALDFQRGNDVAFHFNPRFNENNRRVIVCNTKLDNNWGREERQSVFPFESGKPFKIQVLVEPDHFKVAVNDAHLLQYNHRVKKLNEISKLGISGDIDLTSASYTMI
Method: The total number of galectin-3 puncta and nuclei in the microscopy images were quantified using the software ImageJ.
Cells were seeded in multi-well plates with sterile glass coverslips placed in each well and allowed to adhere to the cell culture surface for at least 24 hours. Then the cells were pre-treated with the different galectin-3 inhibitors at different concentrations (or DMSO as control) for 15 minutes or 24 hours followed by addition of the lysosomal damaging peptide GPN[42] and incubated another 13 minutes, with the inhibitors still present. The 13-minute incubation with GPN and 15-minute pre-incubation with inhibitors were done in DMEM/Ham’s F12 medium with 15 mM HEPES buffer (without serum), whereas the 24-hour incubation with inhibitors were performed in fully supplemented DMEM/Ham’s F12 medium (as described under Cell culture).
After treatment with GPN, the cells were fixed in 3.7% (v/v) formaldehyde in phosphate-buffered saline (PBS) for 15 minutes, permeabilized and blocked using 1% (v/v) TWEEN 20 and 5% (w/v) BSA in PBS for 30 minutes, then incubated with primary and secondary antibodies for one hour each (washed with PBS in between). Primary and secondary antibodies for galectin-3 staining were a rat anti-mouse galectin-3 IgG antibody[50],[51] […] All antibodies were diluted in 0.05% TWEEN 20 and 5% BSA in PBS. […] The coverslips were mounted on glass slides using Mowiol® 4–88 and left at 8 °C overnight before further examination. For imaging of the cells, a LSM-510 confocal laser scanning microscope (Carl Zeiss Microscopy GmbH, Oberkochen, Germany), equipped with a Hamamatsu R6357 photomultiplier (Hamamatsu Photonics K.K., Hamamatsu, Japan), was used. […] Maximum intensity projections of each picture obtained were analyzed with ImageJ 1.47 v (Rasband, W.S., ImageJ, U. S. National Institutes of Health, Bethesda, Maryland, USA) to quantify the number of galectin-3 dots and the number of nuclei in each picture. The quantification of particles (i.e. galectin-3 puncta/nucleus) was carried out using batch processing in the software, where a single macro (including parameters such as image thresholds, particle size and circularity) was used for all images obtained from a single experiment, this to reduce user bias and time consumption.

obese mice = tested on: obese mice; parameters: method as in PMID 27814523; conditions: type 2 diabetes study; cited from earlier work
galectin-3 [3] = target: T1, galectin-3; experiment: Fluorescence anisotropy (FA) competitive assay, affinity for galectin-3; type: binding; parameters: made in house; host or cells: E. coli BL21 Star (DE3)
Source text: A FA assay was used to determine the affinity of recombinant human galectin-3 and the three inhibitors in solution. The use of the FA assay for this purpose has previously been described in detail by Sörme et al.[49]. In short, increasing concentrations of galectins were first titered against a fixed concentration of the fluorescent saccharide probe 3,3′-dideoxy-3-[4-(fluorescein-5-yl-carbonylaminomethyl)-1H-1,2,3-triazol-1-yl]−3′-[4-(3-fluorophenyl)-1H-1,2,3-triazol-1-yl]-1,1′-sulfanediyl-di-β-D-galactopyranoside (4 nM) (described in Peterson et al.[28]), to obtain binding curves in which the anisotropy value increases from a value for probe free in solution (A0) to a value where all probe molecules are bound to galectin-3 (Amax). Binding curves were constructed for each test condition used in this study (i.e. different buffer, temperature and pH, see below) (Fig. S4). To establish the dissociation constant (Kd) values between the inhibitors and galectin-3, a competitive variant of the FA assay was utilized. In this study, increasing concentrations of the inhibitors were titered against fixed concentrations of galectin-3 and probe. By measuring the anisotropy values for the different inhibitor concentrations, together with the values for Amax and A0, the Kd values could be calculated according to the equations presented in Sörme et al.[49].
The experiments were either performed in PBS (pH 7.2), in 50 mM phosphate buffer with 100 mM NaCl (pH 6, 7, or 8), or in 50 mM acetate buffer with 100 mM NaCl (pH 5). All buffers were supplemented with 0.1 µM BSA (to not lose any protein due to absorbance to plate surfaces). For the experiments performed in PBS (pH 7.2), a concentration of 20 nM galectin-3 was used (at room temperature and 4 °C). For the experiments done in phosphate/acetate buffer, galectin-3 was used at concentrations of 400 nM (pH 5), 100 nM (pH 6), or 50 nM (pH 7 and 8).
The emitted light from the fluorescent saccharide probes was measured using a PheraStarFS plate reader and PHERAstar Mars version 2.10 R3 software (BMG, Offenburg, Germany). […] The anisotropy values for each data point were read in duplicate wells of 96-well plates (at a total volume of 140 µl) 30 minutes after the addition of all solutions (for equilibrium to arise).

galectin-1 = tested on: galectin-1; parameters: method as in Delaine et al., Salameh et al., Peterson et al.; conditions: lower compared to galectin-3; ref Delaine et al., Salameh et al., Peterson et al.; cited from earlier work
JIMT-1 cells = experiment: MTT cell viability assay, JIMT-1; type: cell-based; conditions: JIMT-1, 72 hours, 0.04–40 µM for 1 and 2, 0.04–20 µM for 3
Method: (§1) The MTT (3-[4,5-dimethylthiazol-2-yl]−2,5-diphenyltetrazolium bromide) assays were performed as previously described. […] The cells were incubated for 24 hours before addition of galectin-3 inhibitors. The inhibitors were diluted in PBS from their respective stock solution in DMSO (see Galectin-3 inhibitors) and used at final concentrations ranging from 0.04 to 40 μM. DMSO was adjusted to make the final DMSO concentration 0.2% for all inhibitor concentrations, including the control sample (no inhibitor). After 72 hours of treatment, 20 μl of 5 mg/ml MTT solution (in PBS) was added to each well and incubation continued for 1 hour at 37 °C. Thereafter, the MTT containing medium was removed and 100 μl of DMSO was added per well and the plates swirled gently for 10 minutes to dissolve the cells and the purple formazan product precipitate. Absorbance was monitored at 540 nm using a Labsystems iEMS Reader MF (Labsystems Oy, Helsinki, Finland) and the software DeltaSoft II v.4.14 (Biometallics Inc., Princeton, NJ, USA).

HCC1937 cells = experiment: MTT cell viability assay, HCC1937; type: cell-based; conditions: HCC1937, 72 hours, 0.04–40 µM for 1 and 2, 0.04–20 µM for 3
Method: as §1

galectin-3 [4] = target: T1, galectin-3; experiment: Inhibition of fluorescein-tagged galectin-3 binding to the cell surface of CHO cells (flow cytometry); type: cell-based; parameters: made in house; host or cells: E. coli BL21 Star (DE3); conditions: 0.5 µM fluorescein-tagged galectin-3, 4 °C, 1 hour
MCF-7 cells = experiment: MTT cell viability assay, MCF-7; type: cell-based; conditions: MCF-7, 72 hours, 0.04–40 µM for 1 and 2, 0.04–20 µM for 3
Method: as §1

| SMILES | Papp A→B [1] [nm/s] | Papp B→A [1] [nm/s] | mean number of galectin-3 puncta/nucleus (galectin-3 [2]; JIMT-1 cells, 0.3 mM GPN for 13 minutes, n = 92) | glucose tolerance (obese mice) | insulin resistance (obese mice) | pKd (galectin-3 [3]; as in Fig. 1b, restated in legend of Fig. S1, read-out: Kd value for galectin-3) | pKd (galectin-3 [3]; galectin-3 CRD, FA assay, PBS pH 7.2, room temperature, read-out: Kd value for galectin-3) | pKd (galectin-3 [3]; pH 5, acetate buffer with NaCl, read-out: Kd value for galectin-3 at pH 5) | fold lower affinity for galectin-3 compared to 1 (galectin-3 [3]; ratio of Kd values) [fold] | affinity for galectin-1 (galectin-1) | cell viability (MTT) (JIMT-1 cells) | inhibition of galectin-3 accumulation (extent) (galectin-3 [2]; 15 minutes pre-treatment, high concentrations 50–100 µM) | inhibition of galectin-3 accumulation (extent) (galectin-3 [2]; 24 hours pre-treatment, up to 10 µM) | pIC50 (galectin-3 [2]; JIMT-1 cells, 15 minutes pre-incubation, read-out: IC50, inhibition of GPN-induced galectin-3 accumulation) | cell viability (MTT) (HCC1937 cells) | pIC50 (galectin-3 [4]) | cell viability (MTT) (MCF-7 cells) |
| --- | --- | --- | --- | --- | --- | --- | --- | --- | --- | --- | --- | --- | --- | --- | --- | --- | --- |
| OC[C@H]1O[C@H](Sc2ccc(Cl)c(Cl)c2)[C@H](O)[C@@H](n2cc(-c3cc(F)c(F)c(F)c3)nn2)[C@H]1O [compound 2] | 147 | 162 | – | – | – | – | – | – | – | – | – | – | – | – | – | – | – |
| NCC(=O)N[C@@H](Cc1ccccc1)C(=O)Nc1ccc2ccccc2c1 [GPN, glycyl-L-phenylalanine 2-naphthylamide, reference compound] (H-Gly-Phe-βNA) | – | – | 4.81 ± 0.23 | – | – | – | – | – | – | – | – | – | – | – | – | – | – |
| CCCCNC(=O)c1cn(C2C(O)C(CO)OC(SC3OC(CO)C(O)C(n4cc(C(=O)NCCCC)nn4)C3O)C2O)nn1 (stereo not shown) [compound 3] | < 3 | < 0.7 | – | improved glucose tolerance | decreased insulin resistance | 7.45 | 7.44 and 7.45 | 6.11 | > 10 | high affinity | no apparent change in cell viability | complete inhibition of galectin-3 accumulation could not be reached | poor inhibitor of galectin-3 accumulation | ~5.00 | no apparent change in cell viability | 5.00 | no apparent change in cell viability |

Source: paper PMC6379368, “Extracellular and intracellular small-molecule galectin-3 inhibitors” (Scientific Reports, 2019)
